Results from patent US6576668B1, “Remedies for arthrosis deformans” (Santen Pharmaceutical Co., Ltd., priority 1999, dated 2003).

Columns and labels:
[1] = tested on: MMP-3 production of chondrocytes; assay: MMP-3 production of IL-1β-treated chondrocytes (MMP-3 activity in culture supernatant); type: cell-based; conditions: Oryctolagus cuniculus, Chondrocyte, 48 h, rabbit chondrocytes, IL-1β 1 ng/ml, two days culture, average of three samples, read-out: Production inhibition rate (%) (MMP-3)
Source text: In order to study utility of the present compound, actions of the present compound on MMP-3 production and degradation of proteoglycan after IL-1β treatment were studied by using chondrocytes separated from femurs of rabbit knee joints according to the report of Nose et al. (J. Rheumatology, 24, 550-554 (1997)). The action on MMP-3 production was studied by measuring MMP-3 activity. The action on degradation of proteoglycan was studied by measuring glycosaminoglycan (GAG) being a degradation product of proteoglycan. Femurs of knee joints of male Japanese white rabbits were enucleated. Surface cartilage of the femur was sliced into small pieces, and then tissues were dissociated by enzyme treatment to prepare chondrocytes. A mammal cell culture basal medium D-MEM (Dulbecco's Modified Eagle Medium, produced by Gibco Co., Ltd.) containing β-ketoglutaric acid (5 μg/ml), L-ascorbic acid (50 μg/ml), lactoalbumin hydrolyzate (0.2 mg/ml), penicillin (100 U/ml) and streptomycin (100 μg/ml) (hereinafter referred to as “medium A”) was prepared. […] A culture supernatant was collected, and MMP-3 activity in the supernatant was measured with MMP-3 assay Kit (produced by Yagai Co., Ltd.). […]

[2] = tested on: degradation of proteoglycan in chondrocytes; assay: Degradation of proteoglycan in IL-1β-treated chondrocytes (GAG concentration in supernatant); type: cell-based; conditions: Oryctolagus cuniculus, Chondrocyte, 48 h, rabbit chondrocytes, IL-1β 1 ng/ml, two days culture, average of three samples, read-out: Degradation inhibition rate (%) (proteoglycan)
Source text: In order to study utility of the present compound, actions of the present compound on MMP-3 production and degradation of proteoglycan after IL-1β treatment were studied by using chondrocytes separated from femurs of rabbit knee joints according to the report of Nose et al. (J. Rheumatology, 24, 550-554 (1997)). The action on MMP-3 production was studied by measuring MMP-3 activity. The action on degradation of proteoglycan was studied by measuring glycosaminoglycan (GAG) being a degradation product of proteoglycan. Femurs of knee joints of male Japanese white rabbits were enucleated. Surface cartilage of the femur was sliced into small pieces, and then tissues were dissociated by enzyme treatment to prepare chondrocytes. A mammal cell culture basal medium D-MEM (Dulbecco's Modified Eagle Medium, produced by Gibco Co., Ltd.) containing β-ketoglutaric acid (5 μg/ml), L-ascorbic acid (50 μg/ml), lactoalbumin hydrolyzate (0.2 mg/ml), penicillin (100 U/ml) and streptomycin (100 μg/ml) (hereinafter referred to as “medium A”) was prepared. […] A GAG concentration in the supernatant was measured according to the method of Farndale et al. (Biochim. Biophys. Acta, 883, 173-177 (1986)). […]

[3] = tested on: mobility of knee joint, rabbit-immobilized models; assay: Improvement effect on mobility of knee joint in rabbit-immobilized models; type: in vivo, NZW rabbits; conditions: for Mobility of knee joint (degree): measured on 29th day, control 42, average of ten samples
Source text: In order to study in vivo effects of the present compound on osteoarthritis, an improvement effect on a mobility of a knee joint was investigated by using rabbit-immobilized models. A test compound was suspended in a 1% aqueous methyl cellulose solution to prepare test compound solutions having desired concentrations. Knee joints of right hind paws of NZW rabbits (13 weeks old, body weight: 2.97 to 3.27 kg) were fixed in an extended position with plaster bandages under sodium pentobarbital (25 mg/kg) anesthesia. Administering orally the test compound (amount of liquid to be administered: 10 ml/kg) to the rabbits for four weeks, the rabbits were sacrificed by exsanguination on the 29th day, and then mobilities of the knee joints were measured. A similar experiment was carried out by using a 1% aqueous methyl cellulose solution (10 ml/kg) as a control instead of the test compound. The mobility of the knee joint was determined from a difference between a maximum flection angle obtained when a paw joint of the rabbit was vertically loaded with a load of 400 g and a maximum extension angle.

CC(C)(S)C(=O)N[C@@H](CS)C(=O)O [Bucillamine, bucillamine]
inhibition at 3 µM [1]: 28% | inhibition at 3 µM [2]: 19% | Mobility of knee joint (degree) ([3]; 10 mg/kg orally for four weeks): 46 degree | Mobility of knee joint (degree) ([3]; 30 mg/kg orally for four weeks): 48 degree | Mobility of knee joint (degree) ([3]; 100 mg/kg orally for four weeks): 53 degree | Effect on mobility of the rabbit knee joint (in words) ([3]; 10 to 100 mg/kg orally for four weeks): improves the mobility of the rabbit knee joint dose-dependently
